Data taken from publication PMC10892375, “Determination of the Cannabinoid CB1 Receptor’s Positive Allosteric Modulator Binding Site through Mutagenesis Studies” (Pharmaceuticals, 2024).
“Also recorded” adds a separate entry of the source.

Assays:
Assay type in all cases: cell-based
hCB1 mutant F191A^3.27 = target: T1, hCB1 mutant F191A^3.27 (Homo sapiens, UniProt P21554, F191A); assay: pIRES G protein dissociation BRET assay, F191A mutant; settings: for G protein dissociation, AUC of 10 μM compound (maximal response): 10 μM ligand alone; for Allosteric agonism: G protein dissociation in the absence of an orthosteric ligand: 10 μM, result in words
T1 construct: expressed in transfected cells; host or cells: HEK293
T1 sequence (P21554 whole entry F191A): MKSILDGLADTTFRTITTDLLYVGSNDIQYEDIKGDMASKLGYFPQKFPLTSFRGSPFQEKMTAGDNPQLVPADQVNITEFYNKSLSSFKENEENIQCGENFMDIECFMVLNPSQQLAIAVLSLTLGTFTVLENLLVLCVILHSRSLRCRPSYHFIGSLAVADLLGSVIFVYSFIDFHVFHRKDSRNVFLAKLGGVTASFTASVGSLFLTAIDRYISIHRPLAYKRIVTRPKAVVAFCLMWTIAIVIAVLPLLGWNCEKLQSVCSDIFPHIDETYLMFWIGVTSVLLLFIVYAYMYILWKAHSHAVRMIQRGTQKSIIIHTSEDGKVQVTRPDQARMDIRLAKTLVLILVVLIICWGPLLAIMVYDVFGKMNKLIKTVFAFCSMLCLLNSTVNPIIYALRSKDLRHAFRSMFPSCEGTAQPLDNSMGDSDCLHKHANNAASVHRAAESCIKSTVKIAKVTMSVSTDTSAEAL
Description: (§1) Mutagenesis studies using the pIRES G protein dissociation assay were performed using human embryonic kidney 293 (HEK293) wild-type cells transiently transfected with pplss-3HA-hCB1 [31] or modified receptor. All cells were cultured in Dulbecco’s Modified Eagle’s Medium (DMEM) supplemented with 10% fetal bovine serum (FBS), grown in […] vented-cap flasks, and maintained in a 37° C incubator at 5% CO2.
(§2) Mutants of pplss-3HA-hCB1 (WT, pEF-V4-HisA (pEF4a) construct) were generated using a modified QuikChange® (Stratagene, San Diego, CA, USA) site-directed mutagenesis approach using KAPA HiFi Hotstart Polymerase (KAPA Biosystems, Roche, Basel, Switzerland). Briefly, single-stranded primers used to modify one or two base pairs within the target amino acid using PCR were purchased from Integrated DNA Technologies (IDT, Coralville, IA, USA). All pplss-hCB1 mutants were generated using the pplss-3HA-hCB1 pEF4a as parental DNA. PCR products were generated using recommended cycling conditions and treated with Dpn1 (New England Biolabs, Ipswich, MA, USA) overnight at 37° C to digest methylated parental DNA. PCR products were electrophoresed and run on an agarose gel (1% (w.v^−1) agarose, HydraGene, Piscataway, NJ, USA) containing 0.25 μg/mL ethidium bromide (Sigma-Aldrich, St. Louis, MO, USA). Gels were run in 40 mM TRIS-acetate buffer containing […] (pH 8.3) at 100 V for 30 min, maximum current and included a 1kb+ DNA ladder (Invitrogen, Thermo Fisher Scientific, Carlsbad, CA, USA) for reference. Gels were imaged using an UVTech Alliance Q9 Mini transilluminator (UVTech Alliance, Cambridge, UK). Digested products were then used to transform NEB 5α competent E. coli cells in accordance with manufacturer’s instructions. Briefly, transformed PCR products were grown overnight on 8.5 mL Luria Broth agar plates (containing 100 μg/mL ampicillin) at 37° C. Single bacterial colonies were picked and inoculated in Luria Broth (containing 100 μg/mL ampicillin) and grown overnight in a shaking incubator at 37° C. Plasmids were then harvested and purified using a Qiagen miniprep kit (Qiagen, Hilden, Germany) and validated using sequencing (Genetics Analysis Service, University of Otago, Dunedin, New Zealand).
(§3) Dissociation of the G protein heterotrimer, specifically Gαi1, Gβ1, and Gγ2, was investigated using a bioluminescence resonance energy transfer (BRET) assay with the pIRES biosensor first described by and adapted by.
(§4) Briefly, 3 × 10^6 WT HEK293 cells were seeded into 10 cm culture dishes (Corning, Corning, NY, USA; one dish for the control receptor and one for each modified receptor) and incubated at 37 °C for 24 h to gain 50–60% confluency. Culture medium was then replaced and transfection mixtures containing 3 μg pIRES vector and 1 μg receptor (either pplss-hCB1 or modified receptor) were prepared (4 μg total DNA). Plasmids were initially diluted in sterile Milli-Q water before being diluted in OptiMEM reduced serum medium (Thermo Fisher Scientific, Waltham, MA, USA) and combined with […] polyethylenimine (PEI)-max (1:9 DNA:PEI-max ratio) and incubated at room temperature for 20 min. Transfection mixtures were then added to cells via dropwise addition, and cells were incubated at 37 °C for 24 h. Transfected cells were lifted and plated at 50,000 cells/well into poly-d-lysine (PDL; Sigma-Aldrich) coated white 96-well CulturPlates (PerkinElmer, Waltham, MA, USA) and incubated for a further 24 h at 37 °C.
(§5) To assay, the culture medium was aspirated and cells were washed with phosphate buffered saline (PBS) and replaced with BRET assay medium (phenol red free DMEM containing 25 mM HEPES and supplemented with 1 mg/mL bovine serum albumin; BSA, MP Biomedicals, Auckland, New Zealand) for 30 min prior to drug addition (serum starve). Drugs were prepared at 10 × concentration in BRET assay medium, combined in a polypropylene V-bottom plate, and incubated at 37° C prior to drug stimulation.

hCB1 mutant I169A^2.56 = target: T2, hCB1 mutant I169A^2.56 (Homo sapiens, UniProt P21554, I169A); assay: pIRES G protein dissociation BRET assay, I169A mutant; settings: for G protein dissociation, AUC of 10 μM compound (maximal response): 10 μM ligand alone; for Allosteric agonism: G protein dissociation in the absence of an orthosteric ligand: 10 μM; for Allosteric agonism: G protein dissociation in the absence of an orthosteric ligand / Allosteric modulation of CP55940 (PAM activity): result in words; for Allosteric modulation of CP55940 (PAM activity): 10 μM allosteric ligand
T2 construct: expressed in transfected cells; host or cells: HEK293
T2 sequence (P21554 whole entry I169A): as the sequence (P21554 whole entry F191A) above, with I169A, A191F counted along it
Description: as §1, §2, §3, §4, §5

hCB1 mutant I245A^4.54 = target: T3, hCB1 mutant I245A^4.54 (Homo sapiens, UniProt P21554, I245A); assay: pIRES G protein dissociation BRET assay, I245A mutant; settings: for G protein dissociation, AUC of 10 μM compound (maximal response): 10 μM ligand alone
T3 construct: expressed in transfected cells; host or cells: HEK293
T3 sequence (P21554 whole entry I245A): as the sequence (P21554 whole entry F191A) above, with A191F, I245A counted along it
Description: as §1, §2, §3, §4, §5

[1] = 10 μM CP55940 in the presence of 10 μM ZCZ011
[2] = in the presence of 10 μM GAT228
[3] = in the presence of 10 μM GAT229
[4] = top of the curve (maximal response)

Row | SMILES | G protein dissociation, AUC, 10 μM CP55940 + 10 μM ZCZ011 (hCB1 mutant F191A^3.27; [1]) | G protein dissociation, AUC of 10 μM compound (maximal response) (hCB1 mutant F191A^3.27) | EMAX, CP55940 + 10 μM GAT228 (hCB1 mutant F191A^3.27; [2]) | EMAX, CP55940 + 10 μM GAT229 (hCB1 mutant F191A^3.27; [3]) | EMAX, CP55940 Alone (hCB1 mutant F191A^3.27; [4]) | G protein dissociation, AUC of 10 μM compound (maximal response) (hCB1 mutant I169A^2.56) | EMAX, CP55940 + 10 μM GAT228 (hCB1 mutant I169A^2.56; [2]) | EMAX, CP55940 + 10 μM GAT229 (hCB1 mutant I169A^2.56; [3]) | EMAX, CP55940 Alone (hCB1 mutant I169A^2.56; [4]) | G protein dissociation, AUC, 10 μM CP55940 + 10 μM ZCZ011 (hCB1 mutant I245A^4.54; [1]) | EMAX, CP55940 + 10 μM GAT228 (hCB1 mutant I245A^4.54; [2]) | EMAX, CP55940 + 10 μM GAT229 (hCB1 mutant I245A^4.54; [3]) | EMAX, CP55940 Alone (hCB1 mutant I245A^4.54; [4]) | Allosteric agonism: G protein dissociation in the absence of an orthosteric ligand (hCB1 mutant F191A^3.27) | Allosteric agonism: G protein dissociation in the absence of an orthosteric ligand (hCB1 mutant I169A^2.56) | G protein dissociation, AUC of 10 μM compound (maximal response) (hCB1 mutant I245A^4.54) | Allosteric modulation of CP55940 (PAM activity) (hCB1 mutant I169A^2.56)
1 | CCCCCCC(C)(C)c1ccc([C@@H]2C[C@H](O)CC[C@H]2CCCO)c(O)c1 [CP55940] | −134.7 ± 12.4 | −117.8 ± 7.5 | −123.9 ± 7.4 ∆BRET.sec | −119.1 ± 7.8 ∆BRET.sec | −117.3 ± 6.1 ∆BRET.sec | −113.1 ± 11.7 | −117.0 ± 7.4 ∆BRET.sec | −109.7 ± 8.3 ∆BRET.sec | −110.7 ± 10.3 ∆BRET.sec | −183.2 ± 7.2 | −163.7 ± 8.2 ∆BRET.sec | −182.9 ± 7.0 ∆BRET.sec | −150.1 ± 9.8 ∆BRET.sec | – | – | – | –
2 | O=[N+]([O-])C[C@H](c1ccccc1)c1c(-c2ccccc2)[nH]c2ccccc12 [GAT228] | – | 19.5 ± 11.9 | – | – | – | 30.0 ± 5.9 | – | – | – | – | – | – | – | abolished | abolished; also recorded: inhibited constitutive G protein dissociation | −90.3 ± 8.5 | –
3 | O=[N+]([O-])C[C@@H](c1ccccc1)c1c(-c2ccccc2)[nH]c2ccccc12 [GAT229] | – | 22.1 ± 6.4 | – | – | – | 54.8 ± 7.5 | – | – | – | – | – | – | – | abolished | abolished; also recorded: inhibited constitutive G protein dissociation | −121.6 ± 8.0 | neither allosteric ligand acted as a PAM
4 | Cc1ccc2c(C(C[N+](=O)[O-])c3cccs3)c(-c3ccccc3)[nH]c2c1 (stereo not drawn) [ZCZ011, 6-Methyl-3-(2-nitro-1-(thiophen-2-yl)ethyl)-2-phenyl-1 H-indole] | – | 35.0 ± 8.4 | – | – | – | −20.0 ± 9.0 | – | – | – | – | – | – | – | abolished | abolished; also recorded: substantial reduction in G protein dissociation | −130.4 ± 12.9 | neither allosteric ligand acted as a PAM
